Assay results published in patent publication US6723727B1, “Substituted purine derivatives, processes for their preparation, their use, and compositions comprising them” (Hoechst Aktiengesellschaft, priority 1996, dated 2004).
pIC50: −log10 of the molar value.

Target: human vitronectin receptor αvβ3 (Homo sapiens, UniProt P05106+P06756)
Experiment: Inhibition of binding of kistrin to human vitronectin receptor (αvβ3 ELISA test, K/VnR)
Details: not given

human vitronectin receptor αvβ3, sequence (P06756 31-889 limits assumed): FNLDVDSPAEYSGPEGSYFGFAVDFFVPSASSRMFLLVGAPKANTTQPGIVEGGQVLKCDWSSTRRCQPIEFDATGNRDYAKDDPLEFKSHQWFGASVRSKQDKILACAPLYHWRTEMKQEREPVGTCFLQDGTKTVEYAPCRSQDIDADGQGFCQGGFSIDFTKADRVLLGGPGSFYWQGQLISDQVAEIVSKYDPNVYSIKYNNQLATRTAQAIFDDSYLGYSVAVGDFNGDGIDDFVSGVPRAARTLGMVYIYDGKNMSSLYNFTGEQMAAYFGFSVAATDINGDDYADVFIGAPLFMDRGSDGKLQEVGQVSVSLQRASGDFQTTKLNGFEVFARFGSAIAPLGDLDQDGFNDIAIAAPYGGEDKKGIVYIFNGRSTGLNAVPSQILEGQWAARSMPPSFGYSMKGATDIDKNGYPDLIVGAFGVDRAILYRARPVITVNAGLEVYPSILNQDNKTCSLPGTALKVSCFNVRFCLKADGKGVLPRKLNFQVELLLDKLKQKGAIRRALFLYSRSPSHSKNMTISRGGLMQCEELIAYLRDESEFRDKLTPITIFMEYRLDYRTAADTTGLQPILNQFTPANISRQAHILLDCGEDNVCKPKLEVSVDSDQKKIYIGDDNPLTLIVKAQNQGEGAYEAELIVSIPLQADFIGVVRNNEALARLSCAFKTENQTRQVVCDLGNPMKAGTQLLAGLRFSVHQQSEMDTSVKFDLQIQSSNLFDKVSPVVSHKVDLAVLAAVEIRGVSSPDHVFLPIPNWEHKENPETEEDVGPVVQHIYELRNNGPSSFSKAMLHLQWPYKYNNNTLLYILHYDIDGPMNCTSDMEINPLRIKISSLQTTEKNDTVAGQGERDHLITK
human vitronectin receptor αvβ3, sequence (P06756 891-1048 limits assumed): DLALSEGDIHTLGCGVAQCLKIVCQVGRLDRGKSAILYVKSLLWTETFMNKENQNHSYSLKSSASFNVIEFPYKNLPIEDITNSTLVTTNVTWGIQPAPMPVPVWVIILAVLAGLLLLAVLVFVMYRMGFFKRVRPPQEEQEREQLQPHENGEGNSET
human vitronectin receptor αvβ3, sequence (P05106 27-788): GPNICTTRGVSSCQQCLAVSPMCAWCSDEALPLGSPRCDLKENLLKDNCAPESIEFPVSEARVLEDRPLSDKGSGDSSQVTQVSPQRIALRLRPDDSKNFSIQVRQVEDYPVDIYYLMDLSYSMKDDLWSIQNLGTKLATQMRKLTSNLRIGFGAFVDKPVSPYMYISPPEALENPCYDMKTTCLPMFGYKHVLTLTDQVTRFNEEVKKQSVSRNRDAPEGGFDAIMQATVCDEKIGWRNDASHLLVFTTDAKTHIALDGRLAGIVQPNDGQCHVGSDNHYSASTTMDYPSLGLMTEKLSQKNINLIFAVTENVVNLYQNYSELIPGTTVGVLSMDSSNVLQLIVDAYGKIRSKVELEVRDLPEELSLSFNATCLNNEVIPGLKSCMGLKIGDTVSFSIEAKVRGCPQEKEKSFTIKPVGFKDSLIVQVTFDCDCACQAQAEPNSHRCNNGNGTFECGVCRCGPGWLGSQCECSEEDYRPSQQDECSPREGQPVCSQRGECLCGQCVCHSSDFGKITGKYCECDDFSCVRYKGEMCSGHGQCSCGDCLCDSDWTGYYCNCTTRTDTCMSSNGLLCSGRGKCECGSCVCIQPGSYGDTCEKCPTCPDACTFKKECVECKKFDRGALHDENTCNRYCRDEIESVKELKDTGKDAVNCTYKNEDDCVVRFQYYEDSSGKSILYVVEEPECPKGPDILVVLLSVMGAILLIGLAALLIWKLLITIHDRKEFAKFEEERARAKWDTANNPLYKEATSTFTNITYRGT

Compound	pIC50
O=C(N[C@@H](CCNc1ncnc2c1ncn2CCCNC1=NCCN1)C(=O)O)OCc1ccccc1 [Example 13, N^6-(4-(2S-(Benzyloxycarbonylamino)butyric acid))-N^9-(1-(3-(4,5-dihydro-1H-imidazol-2-ylamino)propyl))-adenine]	6.72
N=C(N)NCCCNc1ncnc2c1ncn2C[C@H](NC(=O)OCc1ccccc1)C(=O)O [Example 3, N^6-(1-(3-Guanidinopropyl))-N^9-(3-(2S-(benzyloxycarbonylamino)propionic acid))-adenine]	5.66
O=C(N[C@@H](Cn1cnc2c(N3CCC(C(=O)NC4=NCCCN4)CC3)ncnc21)C(=O)O)OCc1ccccc1 [Example 19, 2S-Benzyloxycarbonylamino-3-(6-(4-(1,4,5,6-tetrahydropyrimidin-2-yl-carbamoyl)piperidin-1-yl)purin-9-yl)propionic acid]	8.40
N=C(N)NCCCn1cnc2c(NC[C@H](NC(=O)OCc3ccccc3)C(=O)O)ncnc21 [Example 16, N^6-(3-(2S-(Benzyloxycarbonylamino)propionic acid))-N^9-(1-(3-guanidinylpropyl))-adenine]	6.27
N=C(N)NCCCCNc1ncnc2c1ncn2C[C@H](NC(=O)OCc1ccccc1)C(=O)O [Example 2, N^6-(1-(4-Guanidinobutyl))-N^9-(3-(2S-(benzyloxycarbonylamino)propionic acid))-adenine]	6.15
O=C(N[C@H](Cn1cnc2c(N3CCC(CNC4=NCCN4)CC3)ncnc21)C(=O)O)OCc1ccccc1 [Example 25, 2R-Benzyloxycarbonylamino-3-(6-(4-((4,5-dihydro-1H-imidazol-2-ylamino)-methyl)piperidin-1-yl)purin-9-yl)propionic Acid]	6.46
O=C(N[C@@H](Cn1cnc2c(NCCCCNC3=NCCN3)ncnc21)C(=O)O)OCc1ccccc1 [Example 4, N^6-(1-(4-(4,5-Dihydro-1H-imidazol-2-ylamino)butyl))-N^9-(3-(2S-(benzyloxycarbonylamino)propionic acid))-adenine]	6.82
O=C(N[C@@H](CNc1ncnc2c1ncn2CCCCCNC1=NCCN1)C(=O)O)OCc1ccccc1 [Example 15, N^6-(3-(2S-(Benzyloxycarbonylamino)propionic acid))-N^9-(1-(5-(4,5-dihydro-1H-imidazol-2-ylamino)pentyl))-adenine]	6.68
O=C(N[C@@H](Cn1cnc2c(NCCCCNc3nc4ccccc4[nH]3)ncnc21)C(=O)O)OCc1ccccc1 [Example 23, 3-(6-((4-(Benzimidazol-2-ylamino)butyl)amino)purin-9-yl)-2S-benzyloxycarbonylaminopropionic Acid]	6.80
N=C(N)NCC1CCN(c2ncnc3c2ncn3C[C@H](NC(=O)OCc2ccccc2)C(=O)O)CC1 [Example 26, 2S-Benzyloxycarbonylamino-3-(6-(4-(guanidinomethyl)piperidin-1-yl)purin-9-yl)propionic Acid]	6.44
O=C(N[C@@H](Cn1cnc2c(N3CCC(CNC4=NCCN4)CC3)ncnc21)C(=O)O)OCc1ccccc1 [Example 24, 2S-Benzyloxycarbonylamino-3-(6-(4-((4,5-dihydro-1H-imidazol-2-ylamino)-methyl)piperidin-1-yl)purin-9-yl)propionic Acid]	7.28
O=C(N[C@@H](CNc1ncnc2c1ncn2CCCCNC1=NCCN1)C(=O)O)OCc1ccccc1 [Example 18]	7.12
N=C(N)NCCCCCn1cnc2c(NC[C@H](NC(=O)OCc3ccccc3)C(=O)O)ncnc21 [Example 14, N^6-(3-(2S-(Benzyloxycarbonylamino)propionic acid))-N^9-(1-(5-guanidinyl-pentyl))-adenine]	6.19
N=C(N)NCCCn1cnc2c(NCC[C@H](NC(=O)OCc3ccccc3)C(=O)O)ncnc21 [Example 12, N^6-(4-(2S-(Benzyloxycarbonylamino)butyric acid))-N^9-(1-(3-guanidinylpropyl))-adenine]	6.24
N=C(N)NCCCCn1cnc2c(NC[C@H](NC(=O)OCc3ccccc3)C(=O)O)ncnc21 [Example 17, N^6-(3-(2S-(Benzyloxycarbonylamino)propionic acid))-^9-(1-(4guanidinyl-butyl))-adenine]	6.77
N=C(N)NCCCCCNc1ncnc2c1ncn2C[C@H](NC(=O)OCc1ccccc1)C(=O)O [Example 1, N^6-(1-(5-Guanidinopentyl))-N^9-(3-(2S-(benzyloxycarbonylamino)propionic acid))-adenine]	5.96

Same assay, conditions: 10 μM test compound

Compound	K/VnR Inhibition at 10 μM (in %)
NCCCCCn1cnc2c(NC[C@H](NC(=O)OCc3ccccc3)C(=O)O)ncnc21 [Example 14c, N^6-(3-(2S-(Benzyloxycarbonylamino)propionic acid))-N^9-(1-(5-amino-pentyl))-adenine]	22%
NCCCn1cnc2c(NC[C@H](NC(=O)OCc3ccccc3)C(=O)O)ncnc21 [Example 16b, N^6-(3-(2S-(Benzyloxycarbonylamino)propionic acid))-N^9-(1-(3-amino-propyl))-adenine]	29%
